Results on 10 molecules are retold here after article PMC4273293 (2014).

Molecules are shown by their SMILES.

Assay [1] has as its system Fa2T (DNA, G4) ACAGGGGTGTGGGGACAGGGGTGTGGGG
In words: FRET melting. The conditions noted are these: K+ 10 mM, Li+ 90 mM, Na+ 10 mM; cacodylate buffer, pH 7.2; DNA 0.2 µM; ligand–DNA ratio 5.0.

Assay [2] concerns ILPR-DNA a2 (DNA, G4) ACAGGGGTGTGGGGACAGGGGTGTGGGG
Briefly: fluorimetric titration. The conditions noted are these: K+ 95 mM, potassium phosphate buffer, pH 7.0, 20 °C, DNA concentration in nucleotide bases, per base.

Assay [3] concerns 22AG (DNA, G4) AGGGTTAGGGTTAGGGTTAGGG
In words: fluorimetric titration. The conditions noted are these: K+ 95 mM; 20 °C; DNA concentration in oligonucleotide.

For assay [4] the test system is unchanged. In words: CD spectroscopy (induced CD).

For `COc1cc2cc3c4cc(OC)c(OC)cc4cc[n+]3c(C)c2cc1OC`, the ΔTm in assay [1] turned out to be 3.1 ± 0.5 °C. Moreover, the “Kb^a2” value in assay [2] is 2.5e+06 M⁻¹.
Take `CN1C(=CC=C(C=CC2=[N+](C)c3ccccc3C2(C)C)C=CC2=[N+](C)c3ccccc3C2(C)C)C=Cc2ccccc21`: in assay [1], the ΔTm is 3.4 ± 0.5 °C. Besides, the “Kb^a2” value in assay [2] (site 1 of 2) worked out at 1.7e+07 M⁻¹. Besides, in assay [3], the “Kb^22AG” value was determined as 390000 M⁻¹.
Take `CN1C=CC(=CC=C(C=Cc2cc[n+](C)c3ccccc23)C=Cc2cc[n+](C)c3ccccc23)c2ccccc21`: the ΔTm in assay [1] was 3.5 ± 0.5 °C. Further, in assay [2], the “Kb^a2” value stood at 200000 M⁻¹. In addition, the “Kb^22AG” value in assay [3] amounted to 200000 M⁻¹.
Consider `CN1C(=CC=C(C=Cc2sc3ccccc3[n+]2C)C=Cc2sc3ccccc3[n+]2C)Sc2ccccc21`, for which the thermal shift (ΔTm) in assay [1] is 4.9 ± 0.5 °C. For the same molecule, in assay [2], the “Kb^a2” value was 1.2e+06 M⁻¹.
`CN1C(=CC=C(C=Cc2ccc3ccccc3[n+]2C)C=Cc2ccc3ccccc3[n+]2C)C=Cc2ccccc21`: the ΔTm in assay [1] turned out to be 14.5 ± 0.5 °C. Moreover, the “Kb^a2” value in assay [2] is 2.7e+06 M⁻¹. For the same molecule, the “Kb^22AG” value in assay [3] was determined as 200000 M⁻¹.
As for `C[n+]1cc(NC(=O)c2cccc(C(=O)Nc3cc4ccccc4[n+](C)c3)n2)cc2ccccc21`, the ΔTm in assay [1] turned out to be 14.9 ± 0.5 °C. Moreover, in assay [2], the “Kb^a2” value was found to be 2.4e+06 M⁻¹.
As for `CN1C(=Cc2cc[n+](C)c3ccccc23)Sc2ccccc21`, in assay [1], the ΔTm amounted to 1.8 ± 0.5 °C. The “Kb^a2” value in assay [2] is 300000 M⁻¹. The binding result in assay [4] is listed as “yes”.
`c1cc[n+]2cc3c(cc2c1)c1cc2cccc[n+]2cc1c1c2c[n+]4ccccc4cc2c2cc4cccc[n+]4cc2c31`: the ΔTm in assay [1] came out at 5.8 ± 0.5 °C. Besides, the “Kb^a2” value in assay [2] amounted to 3.5e+06 M⁻¹.
On to `CN1C(=CC=C(C=Cc2ccc3ccccc3[n+]2C)C=Cc2ccc3ccccc3[n+]2C)C(C)(C)c2ccccc21`, for which the ΔTm in assay [1] came to 3.7 ± 0.5 °C. Also, the “Kb^a2” value in assay [2] (site 1 of 2) amounted to 5.5e+06 M⁻¹. The “Kb^22AG” value in assay [3] came out at 900000 M⁻¹.
Consider `C[n+]1ccc(-c2c3nc(c(-c4cc[n+](C)cc4)c4ccc([nH]4)c(-c4cc[n+](C)cc4)c4nc(c(-c5cc[n+](C)cc5)c5ccc2[nH]5)C=C4)C=C3)cc1`, for which, in assay [1], the ΔTm came to 6.3 ± 0.5 °C. Moreover, in assay [2], the “Kb^a2” value was determined as 2.2e+06 M⁻¹.

A word on the ΔTm: it is the change in melting temperature against a reference sample.
